The results in this text go back to patent US10590422B2, “Anticancer therapeutic intervention” (PHYZAT BIOPHARMACEUTICALS, LDA., priority 2017, dated 2020).

The test system of this data set is ASCT2. Kind of data set: ASCT2 activity: [^14C]-L-alanine uptake in fibrosarcoma HT-1080 cells after ASCT2 gene silencing. The format is cell-based, human. To be noted: at 48 h. The procedure:
Cells were plated in 24-well plates (Sarstedt, Germany) and grown until confluence was reached. On the day of the experiment, Cell culture medium was aspirated and cells were preincubated for 15 min in Hanks' medium (ChCl 140 mM, KCl 5 mM, MgSO4.7H2O 0.8 mM, K2HPO4 0.33 mM, KH2PO4 0.44 mM, MgCl2.6H2O 1 mM, CaCl2) 0.025 mM, Tris-HCl 9.75 mM, pH 7.4). Uptake was initiated by the addition of Hanks' medium with 0.25 μM [^14C]-L-alanine in the absence and in the presence of 3 mM unlabeled L-alanin. During preincubation and incubation cells were continuously shaken and maintained at 37° C. Uptake was terminated after 1 min by rapid removal of uptake solution by means of a vacuum pump connected to a Pasteur pipette, followed by a rapid wash with Hanks' medium. Subsequently, cells were solubilized in 0.1% vol/vol Triton X-100 (dissolved in 5 mM Tris-HCl, pH 7.4), and radioactivity was measured by liquid scintillation counting.
Cells were plated in 24-well (Sarstedt, Germany) or 6-well plates (Sarstedt, Germany) or 96-well plates with black walls clear bottom (BD Biosciences, USA) and incubated 24 h under normal growth conditions. siRNAs against ASCT2 and transfection agent were diluted at desired concentrations and mixed according to transfection agent manufacturer's instructions. The mixture was incubated 20 min at RT for siRNA-complex formation, after which it was added to the cells and incubated at 37° C., 5% CO2. After the incubation period, serum and antibiotic was restored and cells were further incubated at normal conditions for the desired time points until evaluation of ASCT2 activity or ASCT2 expression (immunoblotting and RT-qPCR).

“278/403/404 (sense UGCCACGGUCGCCUCUGAGAATT; antisense UUCUCAGAGGCGACCGUGGCATT; siRNA; sugars by position and backbone not given here; further chemistry not fully specified)”: the “Effect on [^14C]-L-alanine uptake compared with SEQ ID NO: 267/397/398” value (HT-1080 cells, 5 nM, p<0.05) is listed as “significantly greater”. In addition, the “[^14C]-L-alanine (0.25 μM) uptake at initial rate of uptake (1 min)” value (fibrosarcoma HT-1080 cells, 5 nM siRNA, treatment 6 h, 0.4% Lipofectamine 2000, FIG. 8B) was “decreased”.
